Results from ChEMBL document CHEMBL4507303, “Data for DCP probe TP-004” (2021).

Experiments:
[1] = biological target: Serine/threonine-protein kinase WNK1 (Homo sapiens) (UniProt Q9H4A3); settings: Compound concentration 1000.0 nM
[2] = biological target: Serine/threonine-protein kinase MARK2 (Homo sapiens) (UniProt Q7KZI7); settings: Compound concentration 1000.0 nM
[3] = biological target: Eukaryotic translation initiation factor 2-alpha kinase 1 (Homo sapiens) (UniProt Q9BQI3); settings: Compound concentration 1000.0 nM
Sequence of Eukaryotic translation initiation factor 2-alpha kinase 1 (Homo sapiens) (Q9BQI3 whole entry): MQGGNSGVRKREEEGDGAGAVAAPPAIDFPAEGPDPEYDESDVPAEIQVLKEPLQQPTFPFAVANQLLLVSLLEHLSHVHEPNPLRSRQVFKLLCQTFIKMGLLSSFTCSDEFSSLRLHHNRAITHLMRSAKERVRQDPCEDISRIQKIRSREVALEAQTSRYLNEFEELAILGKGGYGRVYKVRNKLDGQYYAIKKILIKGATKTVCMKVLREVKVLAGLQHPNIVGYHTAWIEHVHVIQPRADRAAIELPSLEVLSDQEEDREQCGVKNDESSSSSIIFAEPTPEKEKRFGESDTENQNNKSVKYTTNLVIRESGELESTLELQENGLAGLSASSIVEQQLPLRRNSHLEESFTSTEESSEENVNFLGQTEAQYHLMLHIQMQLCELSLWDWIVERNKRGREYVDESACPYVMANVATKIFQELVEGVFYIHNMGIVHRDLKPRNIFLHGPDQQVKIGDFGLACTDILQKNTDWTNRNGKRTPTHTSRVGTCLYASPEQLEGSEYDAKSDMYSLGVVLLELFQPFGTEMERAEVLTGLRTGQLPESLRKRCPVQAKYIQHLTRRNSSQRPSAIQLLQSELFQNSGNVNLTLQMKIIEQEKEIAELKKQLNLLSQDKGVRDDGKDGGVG

[4] = biological target: Serine/threonine-protein kinase 33 (Homo sapiens) (UniProt Q9BYT3); settings: Compound concentration 1000.0 nM
[5] = biological target: Dual specificity mitogen-activated protein kinase kinase 6 (Homo sapiens) (UniProt P52564); settings: Compound concentration 1000.0 nM
[6] = biological target: Dual specificity mitogen-activated protein kinase kinase 4 (Homo sapiens) (UniProt P45985); settings: Compound concentration 1000.0 nM
[7] = biological target: Ephrin type-B receptor 1 (Homo sapiens) (UniProt P54762); settings: Compound concentration 1000.0 nM
[8] = biological target: Insulin receptor (Homo sapiens) (UniProt P06213); settings: Compound concentration 1000.0 nM
[9] = biological target: 3-phosphoinositide-dependent protein kinase 1 (Homo sapiens) (UniProt O15530); settings: Compound concentration 1000.0 nM
[10] = biological target: Serine/threonine-protein kinase 17B (Homo sapiens) (UniProt O94768); settings: Compound concentration 1000.0 nM
[11] = biological target: Serine/threonine-protein kinase SIK3 (Homo sapiens) (UniProt Q9Y2K2); settings: Compound concentration 1000.0 nM
[12] = biological target: Tyrosine-protein kinase JAK1 (Homo sapiens) (UniProt P23458); settings: Compound concentration 1000.0 nM
[13] = biological target: Serine/threonine-protein kinase D2 (Homo sapiens) (UniProt Q9BZL6); settings: Compound concentration 1000.0 nM
[14] = biological target: NUAK family SNF1-like kinase 2 (Homo sapiens) (UniProt Q9H093); settings: Compound concentration 1000.0 nM
[15] = biological target: Phosphatidylinositol 4-phosphate 5-kinase type-1 gamma (Homo sapiens) (UniProt O60331); settings: Compound concentration 1000.0 nM
Sequence of Phosphatidylinositol 4-phosphate 5-kinase type-1 gamma (Homo sapiens) (O60331 whole entry): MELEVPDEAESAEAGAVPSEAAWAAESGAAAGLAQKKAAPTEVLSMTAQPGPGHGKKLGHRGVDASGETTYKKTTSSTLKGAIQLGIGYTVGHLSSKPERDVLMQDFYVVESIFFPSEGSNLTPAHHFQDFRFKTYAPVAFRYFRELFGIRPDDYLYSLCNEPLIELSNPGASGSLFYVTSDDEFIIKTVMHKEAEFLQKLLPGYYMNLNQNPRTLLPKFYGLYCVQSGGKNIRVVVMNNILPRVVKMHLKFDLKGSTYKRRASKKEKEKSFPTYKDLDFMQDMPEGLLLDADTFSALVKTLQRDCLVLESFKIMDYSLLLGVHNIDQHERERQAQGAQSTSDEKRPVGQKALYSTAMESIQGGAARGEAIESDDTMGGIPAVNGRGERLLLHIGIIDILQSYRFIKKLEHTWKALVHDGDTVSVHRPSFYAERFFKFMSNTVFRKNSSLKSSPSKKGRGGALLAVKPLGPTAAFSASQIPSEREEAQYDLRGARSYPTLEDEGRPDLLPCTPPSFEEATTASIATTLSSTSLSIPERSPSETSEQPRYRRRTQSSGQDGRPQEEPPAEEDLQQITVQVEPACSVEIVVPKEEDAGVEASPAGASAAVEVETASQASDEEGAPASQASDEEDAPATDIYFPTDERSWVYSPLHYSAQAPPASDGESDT

[16] = biological target: Serine/threonine-protein kinase 35 (Homo sapiens) (UniProt Q8TDR2); settings: Compound concentration 1000.0 nM
[17] = tested on: Tyrosine-protein kinase ABL1 (Homo sapiens), P00519 [F317I]; settings: Compound concentration 1000.0 nM
[18] = biological target: D(2) dopamine receptor (Homo sapiens) (UniProt P14416); settings: Compound concentration 10.0 uM
[19] = biological target: Atypical kinase COQ8B, mitochondrial (Homo sapiens) (UniProt Q96D53); settings: Compound concentration 1000.0 nM
Sequence of Atypical kinase COQ8B, mitochondrial (Homo sapiens) (Q96D53 whole entry): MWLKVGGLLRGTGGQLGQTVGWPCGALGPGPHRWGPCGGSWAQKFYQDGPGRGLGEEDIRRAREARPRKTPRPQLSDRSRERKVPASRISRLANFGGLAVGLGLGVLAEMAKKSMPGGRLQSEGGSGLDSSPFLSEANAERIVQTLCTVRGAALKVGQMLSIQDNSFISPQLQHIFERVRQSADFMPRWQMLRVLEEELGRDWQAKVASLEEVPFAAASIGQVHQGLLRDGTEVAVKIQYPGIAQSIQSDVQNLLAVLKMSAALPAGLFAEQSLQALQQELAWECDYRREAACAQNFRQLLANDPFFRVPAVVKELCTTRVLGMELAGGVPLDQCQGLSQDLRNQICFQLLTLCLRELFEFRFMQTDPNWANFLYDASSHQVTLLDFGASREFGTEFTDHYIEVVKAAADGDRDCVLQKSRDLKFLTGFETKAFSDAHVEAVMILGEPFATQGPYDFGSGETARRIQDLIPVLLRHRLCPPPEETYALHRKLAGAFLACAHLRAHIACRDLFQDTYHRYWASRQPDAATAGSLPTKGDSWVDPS

[20] = biological target: Mitogen-activated protein kinase 13 (Homo sapiens) (UniProt O15264); settings: Compound concentration 1000.0 nM
[21] = biological target: Serine/threonine-protein kinase NIM1 (Homo sapiens) (UniProt Q8IY84); settings: Compound concentration 1000.0 nM
[22] = biological target: Mitogen-activated protein kinase kinase kinase 13 (Homo sapiens) (UniProt O43283); settings: Compound concentration 1000.0 nM
[23] = biological target: Cyclin-dependent kinase-like 1 (Homo sapiens) (UniProt Q00532); settings: Compound concentration 1000.0 nM
Sequence of Cyclin-dependent kinase-like 1 (Homo sapiens) (Q00532 whole entry): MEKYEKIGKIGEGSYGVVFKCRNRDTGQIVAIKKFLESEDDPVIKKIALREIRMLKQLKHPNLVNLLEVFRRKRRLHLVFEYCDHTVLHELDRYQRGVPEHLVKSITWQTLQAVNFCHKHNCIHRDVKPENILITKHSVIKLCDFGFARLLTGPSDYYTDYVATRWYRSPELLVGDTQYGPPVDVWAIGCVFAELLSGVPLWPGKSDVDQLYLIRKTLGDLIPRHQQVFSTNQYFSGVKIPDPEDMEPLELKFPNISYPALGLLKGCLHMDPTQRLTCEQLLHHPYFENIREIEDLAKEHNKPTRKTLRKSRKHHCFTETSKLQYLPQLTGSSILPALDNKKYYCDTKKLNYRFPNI

[24] = biological target: Tyrosine-protein kinase HCK (Homo sapiens) (UniProt P08631); settings: Compound concentration 1000.0 nM
[25] = biological target: Aurora kinase C (Homo sapiens) (UniProt Q9UQB9); settings: Compound concentration 1000.0 nM
[26] = biological target: Casein kinase I isoform alpha (Homo sapiens) (UniProt P48729); settings: Compound concentration 1000.0 nM
[27] = biological target: Protein kinase C iota type (Homo sapiens) (UniProt P41743); settings: Compound concentration 1000.0 nM
[28] = biological target: Receptor-type tyrosine-protein kinase FLT3 (Homo sapiens) (UniProt P36888); settings: Compound concentration 1000.0 nM
[29] = biological target: Beta-adrenergic receptor kinase 1 (Homo sapiens) (UniProt P25098); settings: Compound concentration 1000.0 nM
[30] = biological target: Ephrin type-B receptor 2 (Homo sapiens) (UniProt P29323); settings: Compound concentration 1000.0 nM
[31] = tested on: Epidermal growth factor receptor (Homo sapiens), P00533 [UNDEFINED MUTATION]; settings: Compound concentration 1000.0 nM
Sequence of Epidermal growth factor receptor (Homo sapiens), P00533 [UNDEFINED MUTATION] (P00533 whole entry, looked up, change not shown): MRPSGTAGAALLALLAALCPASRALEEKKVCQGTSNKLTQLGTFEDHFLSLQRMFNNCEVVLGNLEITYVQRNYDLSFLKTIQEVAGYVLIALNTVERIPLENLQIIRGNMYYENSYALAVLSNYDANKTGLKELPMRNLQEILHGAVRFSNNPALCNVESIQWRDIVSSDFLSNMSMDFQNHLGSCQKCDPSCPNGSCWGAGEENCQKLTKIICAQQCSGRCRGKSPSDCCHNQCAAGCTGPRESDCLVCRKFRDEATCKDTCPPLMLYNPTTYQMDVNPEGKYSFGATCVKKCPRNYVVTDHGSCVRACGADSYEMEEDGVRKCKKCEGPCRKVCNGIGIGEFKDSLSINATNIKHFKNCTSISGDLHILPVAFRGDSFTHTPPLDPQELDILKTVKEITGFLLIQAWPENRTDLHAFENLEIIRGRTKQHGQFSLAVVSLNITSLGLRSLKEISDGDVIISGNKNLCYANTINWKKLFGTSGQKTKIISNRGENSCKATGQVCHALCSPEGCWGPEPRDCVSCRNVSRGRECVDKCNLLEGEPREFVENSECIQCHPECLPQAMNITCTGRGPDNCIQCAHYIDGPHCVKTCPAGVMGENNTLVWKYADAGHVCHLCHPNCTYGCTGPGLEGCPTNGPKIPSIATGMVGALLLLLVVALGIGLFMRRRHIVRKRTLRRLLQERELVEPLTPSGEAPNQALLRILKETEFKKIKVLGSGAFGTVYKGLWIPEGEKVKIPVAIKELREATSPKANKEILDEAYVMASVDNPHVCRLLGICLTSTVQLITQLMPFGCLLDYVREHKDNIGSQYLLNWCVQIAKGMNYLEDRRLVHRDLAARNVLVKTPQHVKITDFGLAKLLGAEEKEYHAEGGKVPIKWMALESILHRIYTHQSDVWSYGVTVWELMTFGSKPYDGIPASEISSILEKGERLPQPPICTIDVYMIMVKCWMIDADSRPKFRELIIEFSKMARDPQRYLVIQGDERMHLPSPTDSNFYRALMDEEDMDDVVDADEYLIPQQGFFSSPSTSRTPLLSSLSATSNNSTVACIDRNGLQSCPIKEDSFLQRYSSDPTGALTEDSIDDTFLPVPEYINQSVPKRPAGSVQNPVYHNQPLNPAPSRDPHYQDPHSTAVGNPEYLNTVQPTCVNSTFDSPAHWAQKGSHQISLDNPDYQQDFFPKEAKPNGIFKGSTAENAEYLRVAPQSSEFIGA

[32] = biological target: Serine/threonine-protein kinase TAO3 (Homo sapiens) (UniProt Q9H2K8); settings: Compound concentration 1000.0 nM
[33] = biological target: RAC-beta serine/threonine-protein kinase (Homo sapiens) (UniProt P31751); settings: Compound concentration 1000.0 nM
[34] = biological target: Myosin light chain kinase, smooth muscle (Homo sapiens) (UniProt Q15746); settings: Compound concentration 1000.0 nM
[35] = biological target: Alpha-2C adrenergic receptor (Homo sapiens) (UniProt P18825); settings: Compound concentration 10.0 uM
[36] = tested on: eIF-2-alpha kinase GCN2 (Homo sapiens), Q9P2K8 [S808G]; settings: Compound concentration 1000.0 nM
[37] = biological target: Cyclin-dependent kinase 4 (Homo sapiens) (UniProt P11802); settings: Compound concentration 1000.0 nM
[38] = biological target: Macrophage colony-stimulating factor 1 receptor (Homo sapiens) (UniProt P07333); settings: Compound concentration 1000.0 nM
[39] = biological target: Protein-tyrosine kinase 6 (Homo sapiens) (UniProt Q13882); settings: Compound concentration 1000.0 nM
[40] = biological target: Mitogen-activated protein kinase 1 (Homo sapiens) (UniProt P28482); settings: Compound concentration 1000.0 nM
[41] = tested on: Hepatocyte growth factor receptor (Homo sapiens), P08581 [M1250T]; settings: Compound concentration 1000.0 nM
[42] = tested on: Phosphatidylinositol 4,5-bisphosphate 3-kinase catalytic subunit alpha isoform (Homo sapiens), P42336 [I800L]; settings: Compound concentration 1000.0 nM
Sequence of Phosphatidylinositol 4,5-bisphosphate 3-kinase catalytic subunit alpha isoform (Homo sapiens), P42336 [I800L] (P42336 whole entry I800L, canonical isoform): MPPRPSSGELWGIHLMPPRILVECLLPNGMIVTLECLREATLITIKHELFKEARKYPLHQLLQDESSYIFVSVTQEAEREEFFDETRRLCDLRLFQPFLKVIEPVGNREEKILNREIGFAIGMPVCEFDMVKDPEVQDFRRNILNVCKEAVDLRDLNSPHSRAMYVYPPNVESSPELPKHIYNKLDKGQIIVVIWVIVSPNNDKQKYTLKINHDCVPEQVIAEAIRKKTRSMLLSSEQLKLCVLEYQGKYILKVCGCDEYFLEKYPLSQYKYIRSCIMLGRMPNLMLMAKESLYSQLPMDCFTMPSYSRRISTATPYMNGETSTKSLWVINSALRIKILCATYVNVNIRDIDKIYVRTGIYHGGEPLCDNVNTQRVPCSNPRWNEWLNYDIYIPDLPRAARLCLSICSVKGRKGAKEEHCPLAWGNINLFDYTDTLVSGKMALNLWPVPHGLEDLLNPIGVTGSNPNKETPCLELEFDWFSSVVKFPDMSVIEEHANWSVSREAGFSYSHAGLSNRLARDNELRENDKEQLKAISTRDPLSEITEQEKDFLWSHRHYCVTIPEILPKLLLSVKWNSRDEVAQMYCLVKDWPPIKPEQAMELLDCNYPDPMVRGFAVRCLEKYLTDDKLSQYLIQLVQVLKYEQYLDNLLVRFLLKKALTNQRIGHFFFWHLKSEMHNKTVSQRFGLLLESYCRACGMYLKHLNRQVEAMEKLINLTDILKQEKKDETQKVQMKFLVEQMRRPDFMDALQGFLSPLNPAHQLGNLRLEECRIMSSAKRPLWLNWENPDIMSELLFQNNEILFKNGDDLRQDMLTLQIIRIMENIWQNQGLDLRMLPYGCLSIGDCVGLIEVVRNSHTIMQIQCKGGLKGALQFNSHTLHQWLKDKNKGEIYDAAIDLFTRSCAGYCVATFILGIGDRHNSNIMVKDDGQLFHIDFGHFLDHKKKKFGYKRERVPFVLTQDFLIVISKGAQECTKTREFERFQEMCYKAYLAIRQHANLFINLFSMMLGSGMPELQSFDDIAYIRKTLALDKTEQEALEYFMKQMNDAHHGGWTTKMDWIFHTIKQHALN

[43] = biological target: Sodium-dependent dopamine transporter (Homo sapiens, UniProt Q01959); settings: Compound concentration 10.0 uM
[44] = biological target: 5'-AMP-activated protein kinase catalytic subunit alpha-1 (Homo sapiens) (UniProt Q13131); settings: Compound concentration 1000.0 nM
Sequence of 5'-AMP-activated protein kinase catalytic subunit alpha-1 (Homo sapiens) (Q13131 whole entry, looked up): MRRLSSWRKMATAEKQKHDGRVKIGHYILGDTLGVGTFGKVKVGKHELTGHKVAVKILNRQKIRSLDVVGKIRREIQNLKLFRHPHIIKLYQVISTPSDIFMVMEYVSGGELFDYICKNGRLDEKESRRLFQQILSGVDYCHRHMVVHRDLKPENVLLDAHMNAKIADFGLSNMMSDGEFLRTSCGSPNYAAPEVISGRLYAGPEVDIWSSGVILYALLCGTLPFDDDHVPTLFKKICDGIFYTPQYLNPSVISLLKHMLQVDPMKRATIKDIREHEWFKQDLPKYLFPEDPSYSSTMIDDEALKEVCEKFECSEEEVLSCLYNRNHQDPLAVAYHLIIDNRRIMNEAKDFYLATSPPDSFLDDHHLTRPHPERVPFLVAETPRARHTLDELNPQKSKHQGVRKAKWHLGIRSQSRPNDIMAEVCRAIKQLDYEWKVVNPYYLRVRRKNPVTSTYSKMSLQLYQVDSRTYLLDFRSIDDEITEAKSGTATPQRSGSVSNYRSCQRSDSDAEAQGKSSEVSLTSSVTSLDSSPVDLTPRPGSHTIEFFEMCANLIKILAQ

[45] = biological target: BMP-2-inducible protein kinase (Homo sapiens) (UniProt Q9NSY1); settings: Compound concentration 1000.0 nM

Cc1nc(N2CC[C@@H](O)C2)ncc1-c1cc(C(F)(F)F)cc2[nH]ncc12 [TP-004]
residual activity [1]: 71%
residual activity [2]: 100%
residual activity [3]: 98%
residual activity [4]: 100%
residual activity [5]: 100%
residual activity [6]: 97%
residual activity [7]: 73%
residual activity [8]: 100%
residual activity [9]: 100%
residual activity [10]: 99%
residual activity [11]: 53%
residual activity [12]: 78%
residual activity [13]: 79%
residual activity [14]: 67%
residual activity [15]: 100%
residual activity [16]: 100%
residual activity [17]: 87%
inhibition [18]: 12.6%
residual activity [19]: 100%
residual activity [20]: 100%
residual activity [21]: 71%
residual activity [22]: 56%
residual activity [23]: 77%
residual activity [24]: 100%
residual activity [25]: 100%
residual activity [26]: 96%
residual activity [27]: 100%
residual activity [28]: 67%
residual activity [29]: 42%
residual activity [30]: 100%
residual activity [31]: 83%
residual activity [32]: 82%
residual activity [33]: 87%
residual activity [34]: 100%
inhibition [35]: 2.18%
residual activity [36]: 76%
residual activity [37]: 88%
residual activity [38]: 82%
residual activity [39]: 89%
residual activity [40]: 100%
residual activity [41]: 92%
residual activity [42]: 66%
inhibition [43]: 75.2%
residual activity [44]: 89%
residual activity [45]: 100%
